Data set [1] can be described thus: Disposition after single oral dose, mouse. Type of data set: in vivo. On the set-up: concentration in blood: unit not given here. The settings on record: male mouse, 5 mg/kg single oral, 14C-labeled, fasting. As to the method: After a single dose of compound 31 labeled with ^14C was orally administered at a predetermined dose to each of a male mouse, a male rat, and a male cynomolgus monkey under fasting conditions, the concentration in blood was measured after a lapse of a given time, and parameters such as maximum plasma concentration Cmax, time Tmax to reach the maximum plasma concentration, half-life t1/2, area under curve AUC0-∞, mean retention time MRT0-∞, and bioavailability BA were calculated. The concentration in blood in humans (normal subjects) was measured and each of the parameters was calculated, in the similar manner as above except that ^14C-unlabeled compound 31 was used.
In the tables, “N.D.” means not detected.

Data set [2] deals with IFN-γ. Nature of the data set: IFN-γ expression level of sorted CD4-positive memory T-cells of MS patients (ELISA of culture supernatant). Type of data set: in vivo, human. The settings on record: 0.3 mg single oral. As to the method: A single dose of compound 31, which is a synthetic glycolipid of the present invention, described in the first aspect was orally administered to each of 2 MS patients (subjects) shown in Table 2 above after obtainment of informed consent. The dose was set to 0.3 mg per person.
Subsequently, T-cell subfractions were prepared from the peripheral blood of each subject by using the density gradient centrifugation method. First, a total of 20 mL of blood was collected from the vein of each subject 24 hours (1st day), 48 hours (2nd day), 72 hours (3rd day), 168 hours (7th day), and 192 hours (8th day) after the administration of compound 31 by using two 10-mL heparin sodium-containing vacuum blood collection tubes. For a control, 20 mL of blood was similarly collected from the vein of each subject one day before the administration of compound 31.
The collected PBMCs were stained with antibodies by the following method. First, 10 μL of a solution consisting of 20 μL of MACS buffer, 0.25 μL of APC-Cy7-anti-CD3 antibody (BioLegend, Inc.), 1 μL of PB-anti-CD4 antibody (BioLegend, Inc.), 1 μL of PerCP-Cy5.5-anti-CD45RA antibody (BioLegend, Inc.), and 1 μL of PC7-anti-CD56 antibody (Beckman Coulter, Inc.) was added to 6×10^6 cells of PBMCs, thoroughly mixed by vortexing, and then left on ice for 20 minutes. CD56 is a detection marker of cells having NK activity, and CD3^−CD56^− cells indicate being antigen-presenting cells (APCs). […]
mCD4T and APC obtained by the sorting were each suspended in a medium consisting of 500 mL of RPMI1640 (GIBCO/Thermo Fisher Scientific Inc.), 5 mL of glutamine (200 mM, Wako Pure Chemical Industries, Ltd.), 5 mL of Pen/strep (10,000 U/mL, GIBCO/Thermo Fisher Scientific Inc.), 0.5 mL of 2-mercaptoethanol (GIBCO/Thermo Fisher Scientific Inc.), and 50 mL of 10% (v/v) Cellect FETAL BOVINE SERUM (MP Biomedicals, LLC), and the number of cells was measured. […]
After the culture, a culture supernatant was collected, and IFN-γ, IL-4, IL-17, and GM-CSF were measured by the ELISA method. […]
(In general: ELISA stands for enzyme-linked immunosorbent assay.)

Molecules are shown by their SMILES.

Usually AUC(0-inf) stands for total exposure, with the tail of the curve extrapolated. The term AUC(0-t) denotes the area under the concentration-time curve up to a stated or last time point. Broadly, the half-life is how long it takes for the measured level to halve. By Cmax is commonly meant the maximum level reached in the sampled fluid or tissue. As usually defined, the Tmax is the time from dosing to the highest level.

In data set [1] (blood), `CCCCCCCCCCCCCCCCCCCCCCCC(=O)NC(COC1OC(CO)C(O)C(O)C1O)[C@H](O)C(O)CCCCC` (stereo in doubt) [compound 31, (2S,3S,4R)-1-O-(α-D-galactosyl)-2-(N-tetracosanoylamino)-1,3,4-nonanetriol] displayed an AUC(0-inf) of 2.92 µg·h/mL. The compound further registered an AUC(0-t) in data set [1] (blood) of 2.9 µg·h/mL. In data set [1] (blood), this compound showed a half-life of 11 h. Moreover, the MRT inf in data set [1] (blood, read-out: MRT0-∞) is 15.4 h. Moreover, the BA in data set [1] came to 1.01%. The Rate of absorption in data set [1] is given as 1.36%. The concentration in blood in data set [1] (4 h) was 46.5; in data set [1] (8 h), 209; in data set [1] (12 h), 142; in data set [1] (24 h), 33; in data set [1] (48 h), 5.21; in data set [1] (72 h), 1.62. Also, the Cmax in data set [1] (plasma) is 0.209 µg/mL. In addition, the Tmax in data set [1] (plasma) was 8 h. The IFNγ expression level in data set [2] (day 8, MBP stimulation (culture condition B), day −1 value 28528.18) is listed as 7006.30; in data set [2] (day 8, OVA stimulation (culture condition A), day −1 value 23489.34) it was 5032.43. For the same compound, the “change of expression level of IFN-γ” value in data set [2] (day8 vs day-1) is listed as “decreased”.

The values are drawn from patent US12447167B2, “GM-CSF-producing t-cell control agent and Th1/Th2 immune balance regulator” (National Center of Neurology and Psychiatry, priority 2014, dated 2025).
